The target in one assay is T1, h-TGR5 (Homo sapiens, UniProt Q8TDU6).
T1 sequence (Q8TDU6 1-330): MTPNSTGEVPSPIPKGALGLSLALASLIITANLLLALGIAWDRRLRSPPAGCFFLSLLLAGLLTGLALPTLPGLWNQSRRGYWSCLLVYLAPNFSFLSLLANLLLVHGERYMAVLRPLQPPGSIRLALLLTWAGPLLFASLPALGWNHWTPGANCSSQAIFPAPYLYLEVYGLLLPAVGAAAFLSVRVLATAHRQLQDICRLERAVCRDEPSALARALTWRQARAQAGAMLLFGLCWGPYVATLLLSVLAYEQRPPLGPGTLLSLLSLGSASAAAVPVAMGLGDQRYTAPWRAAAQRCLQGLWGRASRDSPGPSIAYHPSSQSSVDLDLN
Description: TGR5 cAMP Assay using Cisbio cAMP Dynamic 2 htrf assay kit. It is filed as cell-based. As to conditions: hTGR5CRE-luc HEK 293 cells.

In the next assay the target is T2, human TGR5 (h-TGR5) (Homo sapiens, UniProt Q8TDU6).
T2 sequence (Q8TDU6 1-330): T1 sequence (Q8TDU6 1-330)
Description: TGR5/CRE-Luciferase Assay. It counts as cell-based. The conditions noted are these: HEK 293 hTGR5/CRE-Luc cells, 6 hours incubation, read-out: CRE-Luc Agonist (EC50). The gist of the method: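 HEK 293 CRE-Luciferase cells stably expressing the receptor, plated in DMEM 18-20 h before assay, then exposed to serially diluted compounds (DMEM with 5% DMSO) for 6 h. Luciferase read-out after lysis; EC50 from dose-response.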

Experimental findings from US8846739B2, “TGR5 agonists” (Exelixis Patent Company LLC, priority 2009, dated 2014) are described below.

One may read the EC50 as the midpoint of the concentration-response curve.

For the compound `COc1cc(C(C)(C)c2cnc(SCc3c(F)cc(S(=O)(=O)N(CCC[N+](C)(C)C)CC(=O)O)cc3Cl)n2-c2ccc(F)cc2)ccc1Cl` [Compound 14s, 3-[(carboxymethyl){[3-chloro-4-({[5-{1-[4-chloro-3-(methyloxy)phenyl]-1-methylethyl}-1-(4-fluorophenyl)-1H-imidazol-2-yl]thio}methyl)-5-fluorophenyl]sulfonyl}amino]-N,N,N-trimethylpropan-1-aminium], the EC50 on h-TGR5 and on human TGR5 (h-TGR5) was below 100 nM each time.

As for `COc1cc(C(C)(C)c2cnc(SCc3c(F)cc(S(=O)(=O)N(CCC[N+](C)(C)C)[C@@H](CO)C(=O)O)cc3F)n2-c2ccc(F)cc2)ccc1Cl` [Compound 14t, 3-([(1S)-1-carboxy-2-hydroxyethyl]{[4-({[5-{1-[4-chloro-3-(methyloxy)phenyl]-1-methylethyl}-1-(4-fluorophenyl)-1H-imidazol-2-yl]thio}methyl)-3,5-difluorophenyl]sulfonyl}amino)-N,N,N-trimethylpropan-1-aminium], the EC50 on h-TGR5 and on human TGR5 (h-TGR5) was below 100 nM each time.

In the case of `COc1cc(C(C)(C)c2cnc(SCc3c(F)cc(S(=O)(=O)N(CCC[N+](C)(C)C)CCC(=O)O)cc3Cl)n2-c2ccc(F)cc2)ccc1Cl` [Compound 14u, 3-[(2-carboxyethyl){[3-chloro-4-({[5-{1-[4-chloro-3-(methyloxy)phenyl]-1-methylethyl}-1-(4-fluorophenyl)-1H-imidazol-2-yl]thio}methyl)-5-fluorophenyl)sulfonyl}amino]-N,N,N-trimethylpropan-1-aminium], the EC50 at h-TGR5 and at human TGR5 (h-TGR5) was below 100 nM each time.

Turning to `COc1cc(C(C)(C)c2cnc(SCc3c(F)cc(S(=O)(=O)N(CCC[N+](C)(C)C)Cc4cccc(C(=O)O)c4)cc3F)n2-c2ccc(F)cc2)ccc1Cl` [Compound 14v, 3-([(3-carboxyphenyl)methyl]{[4-({[5-{1-[4-chloro-3-(methyloxy)phenyl]-1-methylethyl}-1-(4-fluorophenyl)-1H-imidazol-2-yl]thio}methyl)-3,5-difluorophenyl]sulfonyl}amino)-N,N,N-trimethylpropan-1-aminium], the EC50 on h-TGR5 and on human TGR5 (h-TGR5) was below 100 nM in each case.

For `CC[C@@H](C(=O)O)N(CCC[N+](C)(C)C)S(=O)(=O)c1cc(F)c(CSc2ncc(C(C)(C)c3ccc(Cl)c(OC)c3)n2-c2ccc(F)cc2)c(Cl)c1` [Compound 14w, 3-([(1S)-1-carboxypropyl]{[3-chloro-4-({[5-{1-[4-chloro-3-(methyloxy)phenyl]-1-methylethyl}-1-(4-fluorophenyl)-1H-imidazol-2-yl]thio}methyl)-5-fluorophenyl]sulfonyl}amino)-N,N,N-trimethylpropan-1-aminium], the 50% effective concentration (EC50) at h-TGR5 and at human TGR5 (h-TGR5) was below 100 nM in each case.

Turning to `COc1cc(C(C)(C)c2cnc(SCc3c(F)cc(S(=O)(=O)N(CCC[N+](C)(C)C)[C@@H](C)C(=O)O)cc3Cl)n2-c2ccc(F)cc2)ccc1Cl` [Compound 14x, 3-([(1S)-1-carboxyethyl]{[3-chloro-4-({[5-{1-[4-chloro-3-(methyloxy)phenyl]-1-methylethyl}-1-(4-fluorophenyl)-1H-imidazol-2-yl]thio}methyl)-5-fluorophenyl]sulfonyl}amino)-N,N,N-trimethylpropan-1-aminium], the EC50 at h-TGR5 and on human TGR5 (h-TGR5) was below 100 nM throughout.

As to `COc1cc(C(C)(C)c2cnc(SCc3c(F)cc(S(=O)(=O)N(CCC[N+](C)(C)C)[C@H](C)C(=O)O)cc3Cl)n2-c2ccc(F)cc2)ccc1Cl` [Compound 14y, 3-([(1R)-1-carboxyethyl]{[3-chloro-4-({[5-{1-[4-chloro-3-(methyloxy)phenyl]-1-methylethyl}-1-(4-fluorophenyl)-1H-imidazol-2-yl]thio}methyl)-5-fluorophenyl]sulfonyl}amino)-N,N,N-trimethylpropan-1-aminium], the EC50 on h-TGR5 and on human TGR5 (h-TGR5) was below 100 nM throughout.

As for `COc1cc(C(C)(C)c2cnc(SCc3c(F)cc(S(=O)(=O)N(CCC[N+](C)(C)C)C4(C(=O)O)CC4)cc3Cl)n2-c2ccc(F)cc2)ccc1Cl` [Compound 14z, 3-[(1-carboxycyclopropyl){[3-chloro-4-({[5-{1-[4-chloro-3-(methyloxy)phenyl]-1-methylethyl}-1-(4-fluorophenyl)-1H-imidazol-2-yl]thio}methyl)-5-fluorophenyl]sulfonyl}amino]-N,N,N-trimethylpropan-1-aminium], the concentration giving a half-maximal response (EC50) at h-TGR5 and on human TGR5 (h-TGR5) was below 100 nM each time.

As to `COc1cc(C(C)(C)c2cnc(SCc3c(F)cc(S(=O)(=O)N(CC4CC[N+](C)(C)CC4)[C@H](C)C(=O)O)cc3F)n2-c2ccc(F)cc2)ccc1Cl` [Compound 15, 2,2,2-trifluoroacetate], the concentration for a half-maximal effect (EC50) on h-TGR5 and at human TGR5 (h-TGR5) was below 100 nM throughout.

Turning to `COc1cc(C(C)(C)c2cnc(SCc3c(F)cc(S(=O)(=O)N(CCC[n+]4ccccc4)[C@H](C)C(=O)O)cc3Cl)n2-c2ccc(F)cc2)ccc1Cl` [Compound 15a, (R)-1-(3-(N-(1-carboxyethyl)-3-chloro-4-((5-(2-(4-chloro-3-methoxyphenyl)propan-2-yl)-1-(4-fluorophenyl)-1H-imidazol-2-ylthio)methyl)-5-fluorophenylsulfonamido)propyl)pyridinium chloride], the EC50 at h-TGR5 and at human TGR5 (h-TGR5) was below 100 nM each time.

Turning to `COc1cc(C(C)(C)c2cnc(SCc3c(F)cc(S(=O)(=O)N(CCC[n+]4ccn(C)c4)[C@H](C)C(=O)O)cc3Cl)n2-c2ccc(F)cc2)ccc1Cl` [Compound 15b, (R)-3-(3-(N-(1-carboxyethyl)-3-chloro-4-((5-(2-(4-chloro-3-methoxyphenyl)propan-2-yl)-1-(4-fluorophenyl)-1H-imidazol-2-ylthio)methyl)-5-fluorophenylsulfonamido)propyl)-1-methyl-1H-imidazol-3-ium chloride], the EC50 on h-TGR5 and at human TGR5 (h-TGR5) was below 100 nM in each case.

With `COc1cc(C(C)(C)c2cnc(SCc3c(F)cc(S(=O)(=O)N(C)[C@@H](CCC[N+](C)(C)C)C(=O)O)cc3F)n2-c2ccc(F)cc2)ccc1Cl` [Compound 16, (S)-4-carboxy-4-(4-((5-(2-(4-chloro-3-methoxyphenyl)propan-2-yl)-1-(4-fluorophenyl)-1H-imidazol-2-ylthio)methyl)-3,5-difluoro-N-methylphenylsulfonamido)-N,N,N-trimethylbutan-1-aminium 2,2,2-trifluoroacetate], the concentration giving a half-maximal response (EC50) at h-TGR5 and on human TGR5 (h-TGR5) was below 100 nM each time.

Regarding `COc1cc(C(C)(C)c2cnc(SCc3c(F)cc(S(=O)(=O)N(C)[C@@H](CCC[N+](C)(C)C)C(=O)[O-])cc3F)n2-c2ccc(F)cc2)ccc1Cl` [Compound 17], the concentration for a half-maximal effect (EC50) at h-TGR5 and on human TGR5 (h-TGR5) was below 100 nM each time.

Turning to `CCN([C@@H](CCC[N+](C)(C)C)C(=O)O)S(=O)(=O)c1cc(F)c(CSc2ncc(C(C)(C)c3ccc(Cl)c(OC)c3)n2-c2ccc(F)cc2)c(F)c1` [Compound 17a, (S)-4-carboxy-4-(4-((5-(2-(4-chloro-3-methoxyphenyl)propan-2-yl)-1-(4-fluorophenyl)-1H-imidazol-2-ylthio)methyl)-N-ethyl-3,5-difluorophenylsulfonamido)-N,N,N-trimethylbutan-1-aminium 2,2,2-trifluoroacetate], the concentration giving a half-maximal response (EC50) at h-TGR5 and at human TGR5 (h-TGR5) was below 100 nM each time.

With `COc1cc(C(C)(C)c2cnc(SCc3c(F)cc(S(=O)(=O)N(C)[C@@H](CCC[N+](C)(C)C)C(=O)O)cc3Cl)n2-c2ccc(F)cc2)ccc1Cl` [Compound 17b, (S)-4-carboxy-4-(3-chloro-4-((5-(2-(4-chloro-3-methoxyphenyl)propan-2-yl)-1-(4-fluorophenyl)-1H-imidazol-2-ylthio)methyl)-5-fluoro-N-methylphenylsulfonamido)-N,N,N-trimethylbutan-1-aminium 2,2,2-trifluoroacetate], the EC50 on h-TGR5 and on human TGR5 (h-TGR5) was below 100 nM in each case.

As for `COc1cc(C(C)(C)c2cnc(SCc3c(F)cc(S(=O)(=O)N(C)[C@H](CCC[N+](C)(C)C)C(=O)O)cc3F)n2-c2ccc(F)cc2)ccc1Cl` [Compound 17c, (R)-4-carboxy-4-(4-((5-(2-(4-chloro-3-methoxyphenyl)propan-2-yl)-1-(4-fluorophenyl)-1H-imidazol-2-ylthio)methyl)-3,5-difluoro-N-methylphenylsulfonamido)-N,N,N-trimethylbutan-1-aminium 2,2,2-trifluoroacetate], the EC50 at h-TGR5 and on human TGR5 (h-TGR5) was below 100 nM each time.

For `COc1cc(C(C)(C)c2cnc(SCc3c(F)cc(S(=O)(=O)N(C)[C@H](CCC[N+](C)(C)C)C(=O)O)cc3Cl)n2-c2ccc(F)cc2)ccc1Cl` [Compound 17d, (R)-4-carboxy-4-(3-chloro-4-((5-(2-(4-chloro-3-methoxyphenyl)propan-2-yl)-1-(4-fluorophenyl)-1H-imidazol-2-ylthio)methyl)-5-fluoro-N-methylphenylsulfonamido)-N,N,N-trimethylbutan-1-aminium 2,2,2-trifluoroacetate], the EC50 on h-TGR5 and on human TGR5 (h-TGR5) was below 100 nM in each case.

In the case of `COc1cc(C(C)(C)c2cnc(SCc3c(F)cc(S(=O)(=O)N[C@@H](CCCC[N+](C)(C)C)C(=O)O)cc3Cl)n2-c2ccc(F)cc2)ccc1Cl` [Compound 17e, (S)-5-carboxy-5-(3-chloro-4-((5-(2-(4-chloro-3-methoxyphenyl)propan-2-yl)-1-(4-fluorophenyl)-1H-imidazol-2-ylthio)methyl)-5-fluorophenylsulfonamido)-N,N,N-trimethylpentan-1-aminium 2,2,2-trifluoroacetate], the EC50 at h-TGR5 and on human TGR5 (h-TGR5) was below 100 nM throughout.
